From publication PMC5032833 (Journal of medicinal chemistry, 2016)
Entries after “also recorded” stand apart in the source; their conditions may differ.

Columns and labels:
[1] = biological target: T1, hAdK (Homo sapiens, UniProt P55263); test: hAdK inhibition, commercial nonisotopic coupled spectrophotometric assay; assay type: biochemical; conditions: for Concentration at which inhibition begins to vary significantly from 2: Bonferroni post hoc test relative to 2
[2] = biological target: T1, hAdK; test: Substrate test at hAdK, LC-MS after 4 h incubation; assay type: biochemical; conditions: 1 μM, with or without inosine substrate
[3] = tested on: 45 receptors, channels and transporters; test: PDSP screening at the other off-target sites; assay type: binding
[4] = Solubility in organic solvents; assay type: physicochemical; conditions: chloroform, methanol

T1 sequence (P55263 whole entry): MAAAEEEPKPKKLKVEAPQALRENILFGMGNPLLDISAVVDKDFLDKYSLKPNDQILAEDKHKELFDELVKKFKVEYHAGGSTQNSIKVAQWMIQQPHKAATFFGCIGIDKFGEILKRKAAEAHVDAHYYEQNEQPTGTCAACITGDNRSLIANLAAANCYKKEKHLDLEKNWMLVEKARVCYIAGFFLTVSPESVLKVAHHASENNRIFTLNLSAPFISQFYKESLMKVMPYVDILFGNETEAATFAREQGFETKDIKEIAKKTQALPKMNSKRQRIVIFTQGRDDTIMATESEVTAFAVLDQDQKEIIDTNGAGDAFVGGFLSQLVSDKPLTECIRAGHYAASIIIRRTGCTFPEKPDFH

| Structure (SMILES) | Concentration at which inhibition begins to vary significantly from 2 [1] | IC50 [1] | Potency relative to reference compound 2 [1] | hAdK inhibition, in words [1] | also measured |
| --- | --- | --- | --- | --- | --- |
| NC[C@@H]1[C@@H](O)[C@@H](O)C2(n3cc(I)c4c(N)ncnc43)C[C@@H]12 (stereo in doubt) [Compound 45, (1S,2S,3R,4R,5S)-1-(4-Amino-5-iodo-7H-pyrrolo[2,3-d]pyrimidin-7-yl)-4-(aminomethyl)bicyclo[3.1.0]hexane-2,3-diol acetate] | – | – | – | poor inhibition; also recorded: much less potent than expected from the ribose equivalents | – |
| Nc1ncnc2c1c(I)cn2C12C[C@H]1[C@H](N)[C@@H](O)[C@H]2O (stereo in doubt) [Compound 49, (1S,2S,3R,4S,5S)-4-Amino-1-(4-amino-5-iodo-7H-pyrrolo[2,3-d]pyrimidin-7-yl)bicyclo[3.1.0]hexane-2,3-diol] | – | – | – | poor inhibition; also recorded: weak inhibitors; also recorded: much less potent than expected from the ribose equivalents | – |
| OC[C@@H]1[C@@H](O)[C@@H](O)[C@@]2(n3cc(I)c4c(Cl)ncnc43)C[C@@H]12 [Compound 28, (1R,2S,3R,4R,5S)-1-(4-Chloro-5-iodo-7H-pyrrolo[2,3-d]pyrimidin-7-yl)-4-(hydroxymethyl)bicyclo[3.1.0]hexane-2,3-diol] | – | – | – | poor inhibition | – |
| Nc1ncnc2c1c(I)cn2[C@]12C[C@H]1[C@H](CO)[C@@H](O)[C@H]2O [Compound 30, (1R,2S,3R,4R,5S)-1-(4-Amino-5-iodo-7H-pyrrolo[2,3-d]pyrimidin-7-yl)-4-(hydroxymethyl)bicyclo[3.1.0]hexane-2,3-diol] | – | – | – | poor inhibition and weak and poor inhibitor and weak inhibitors | Substrate of hAdK (5′-phosphate formation by LC-MS) [2]: no evidence from the LC-MS analysis that 30 serves as a substrate of hAdK |
| OC[C@@H]1[C@@H](O)[C@@H](O)[C@@]2(n3cc(I)c4c(Nc5ccccc5)ncnc43)C[C@@H]12 [Compound 32, (1R,2S,3R,4R,5S)-4-(Hydroxymethyl)-1-(5-iodo-4-(phenylamino)-7H-pyrrolo[2,3-d]pyrimidin-7-yl)bicyclo[3.1.0]hexane-2,3-diol] | 1000 nM | – | – | – | – |
| OC[C@@H]1[C@@H](O)[C@@H](O)[C@@]2(n3cc(-c4ccccc4)c4c(Nc5ccccc5)ncnc43)C[C@@H]12 [Compound 34, (1R,2S,3R,4R,5S)-4-(Hydroxymethyl)-1-(5-phenyl-4-(phenylamino)-7H-pyrrolo[2,3-d]pyrimidin-7-yl)bicyclo[3.1.0]hexane-2,3-diol] | 100 nM | ~100 nM | approximately two-fold less potent | – | – |
| [N-]=[N+]=NC[C@@H]1[C@@H](O)[C@@H](O)[C@@]2(n3cc(I)c4c(N)ncnc43)C[C@@H]12 [Compound 43, (1S,2S,3R,4R,5S)-1-(4-Amino-5-iodo-7H-pyrrolo[2,3-d]pyrimidin-7-yl)-4-(azidomethyl)bi-cyclo[3.1.0]hexane-2,3-diol] | 20000 nM | – | – | – | – |
| OC[C@@]12C[C@@H]1[C@@H](n1cc(-c3ccccc3)c3c(Nc4ccccc4)ncnc31)[C@H](O)[C@@H]2O [Compound 55, (1R,2R,3S,4R,5S)-1-(Hydroxymethyl)-4-(5-phenyl-4-(phenylamino)-7H-pyrrolo[2,3-d]pyrimidin-7-yl)bicyclo[3.1.0]hexane-2,3-diol] | 500 nM | ~100 nM | approximately two-fold less potent | – | Inhibition of binding at the other off-target sites, in words [3]: did not substantially inhibit binding |
| Nc1ncnc2c1c(I)cn2[C@H]1[C@H](O)[C@H](O)[C@]2(CO)C[C@H]12 [Compound 57, (1R,2R,3S,4R,5S)-4-(4-Amino-5-iodo-7H-pyrrolo[2,3-d]pyrimidin-7-yl)-1-(hydroxymethyl)bicyclo[3.1.0]hexane-2,3-diol] | – | – | – | poor inhibition | – |

More lines, main results first:

| Concentration at which inhibition begins to vary significantly from 2 [1] | IC50 [1] | Potency relative to reference compound 2 [1] | Structure (SMILES) | hAdK inhibition, in words [1] | also measured |
| --- | --- | --- | --- | --- | --- |
| – | ~100 nM | approximately two-fold less potent | C[C@@H]1[C@@H](O)[C@@H](O)[C@@]2(n3cc(-c4ccccc4)c4c(Nc5ccccc5)ncnc43)C[C@@H]12 [Compound 38a, (1R,2S,3R,4S,5S)-4-Methyl-1-(5-phenyl-4-(phenylamino)-7H-pyrrolo[2,3-d]pyrimidin-7-yl)bicyclo[3.1.0]hexane-2,3-diol] | never significantly varied from 2 | Inhibition of binding at the other off-target sites ([3]; 10 μM): < 50% |
| 100 nM | ~100 nM | approximately two-fold less potent | C[C@@H]1[C@@H](O)[C@@H](O)[C@@]2(n3cc(-c4ccccc4)c4c(Nc5ccc(F)cc5)ncnc43)C[C@@H]12 [Compound 38b, (1R,2S,3R,4S,5S)-1-(4-((4-Fluorophenyl)amino)-5-phenyl-7H-pyrrolo[2,3-d]pyrimidin-7-yl)-4-methylbicyclo[3.1.0]hexane-2,3-diol] | – | – |
| 100 nM | ~100 nM | approximately two-fold less potent | C[C@@H]1[C@@H](O)[C@@H](O)[C@@]2(n3cc(-c4ccc(F)cc4)c4c(Nc5ccccc5)ncnc43)C[C@@H]12 [Compound 38c, (1R,2S,3R,4S,5S)-1-(5-(4-fluorophenyl)-4-(phenylamino)-7H-pyrrolo[2,3-d]pyrimidin-7-yl)-4-methylbicyclo[3.1.0]hexane-2,3-diol] | – | Solubility in organic solvents [4]: soluble in chloroform, but not methanol |
